Experimental data: patent US9790213B2, “Imidazoles for the treatment and prophylaxis of respiratory syncytial virus infection” (Hoffmann-La Roche Inc., priority 2015, dated 2017)

test system: RSV Long strain (ATCC VR-26); test: Viral cytopathic effect (CPE) assay; assay type: cell-based; conditions: human respiratory syncytial virus, 120 h, cell viability after 5 days (Cell Counting kit-8)
Procedure: EC50: the concentration of a compound where 50% of its maximal protection effect against viral induced CPE is observed LongStrain: a subtype RSV strain obtained from ATCC with catalog number VR-26 To measure anti-RSV activity of compounds, 96-well plates were seeded with 6×10^3 cells per well in Dulbecco's modified Eagle's medium (DMEM) containing 10% fetal bovine serum (FBS). Cells were infected the next day with sufficient RSV Long strain (ATCC) to produce an approximately 80-90% cytopathic effect after 5 days, in the presence of serial half-log diluted compound in a total volume of 200 μL per well. The viability of cells is assessed after 5 days using Cell Counting kit-8 (Dojindo Molecular Technologies). The absorbance at 450 nm and referenced at 630 nm is measured to determine 50% effective concentration (EC50).

Molecule | EC50
COc1cc(-c2noc(-c3cn(-c4ccccc4Br)c(C)n3)n2)cc(OC)c1OC [Example 1-1, 5-(1-(2-Bromophenyl)-2-methyl-1H-imidazol-4-yl)-3-(3,4,5-trimethoxyphenyl)-1,2,4-oxadiazole] | 0.78 µM
COc1cc(-c2noc(-c3ncn(-c4ccccc4Br)c3C)n2)cc(OC)c1OC [Example 1-2, 5-[1-(2-Bromo-phenyl)-5-methyl-1H-imidazol-4-yl]-3-(3,4,5-trimethoxy-phenyl)-[1,2,4]oxadiazole] | 0.6 µM
COc1cc(-c2noc(-c3ncn(-c4c(C)cccc4C)c3C)n2)cc(OC)c1OC [Example 1-6, 5-(1-(2,6-Dimethylphenyl)-5-methyl-1H-imidazol-4-yl)-3-(3,4,5-trimethoxyphenyl)-1,2,4-oxadiazole] | 0.51 µM
COc1cc(-c2noc(-c3ncn(-c4c(C)cccc4Cl)c3C)n2)cc(OC)c1OC [Example 1-9, 5-[1-(2-Chloro-6-methyl-phenyl)-5-methyl-imidazol-4-yl]-3-(3,4,5-trimethoxyphenyl)-1,2,4-oxadiazole] | 0.22 µM
COc1ccc(-c2noc(-c3ncn(-c4c(C)cccc4C)c3C)n2)cc1 [Example 1-10, 5-(1-(2,6-Dimethylphenyl)-5-methyl-1H-imidazol-4-yl)-3-(4-methoxyphenyl)-1,2,4-oxadiazol] | 2.4 µM
COc1ccc(-c2noc(-c3ncn(-c4c(C)cccc4C)c3C)n2)c(OC)c1 [Example 1-12, 3-(2,4-Dimethoxy-phenyl)-5-[1-(2,6-dimethyl-phenyl)-5-methyl-1H-imidazol-4-yl]-[1,2,4]oxadiazole] | 0.362 µM
COc1ccc(-c2noc(-c3ncn(-c4c(C)cccc4Cl)c3C)n2)cc1 [Example 1-15, 5-[1-(2-Chloro-6-methyl-phenyl)-5-methyl-1H-imidazol-4-yl]-3-(4-methoxy-phenyl)-[1,2,4]oxadiazole] | 1.74 µM
COc1ccccc1-n1c(C)nc(-c2nc(-c3cc(OC)c(OC)c(OC)c3)no2)c1C [Example 1-23, 5-[1-(2-Methoxy-phenyl)-2,5-dimethyl-1H-imidazol-4-yl]-3-(3,4,5-trimethoxy-phenyl)-[1,2,4]oxadiazole] | 2.08 µM
COc1cc(-c2noc(-c3ncc(-c4ccccc4Cl)n3C)n2)cc(OC)c1OC [Example 1-25, 5-[5-(2-Chlorophenyl)-1-methyl-imidazol-2-yl]-3-(3,4,5-trimethoxyphenyl)-1,2,4-oxadiazole] | 1.28 µM
COc1cc(-c2noc(-c3cnc(-c4ccccc4Cl)n3C)n2)cc(OC)c1OC [Example 1-26, 5-[2-(2-Chlorophenyl)-3-methyl-imidazol-4-yl]-3-(3,4,5-trimethoxyphenyl)-1,2,4-oxadiazole] | 2.03 µM
COc1cc(C(=O)O)ccc1-c1noc(-c2ncn(-c3c(C)cccc3Cl)c2C)n1 [Example 2-1, 4-[5-[1-(2-Chloro-6-methyl-phenyl)-5-methyl-imidazol-4-yl]-1,2,4-oxadiazol-3-yl]-3-methoxy-benzoic acid] | 1.85 µM
COc1cc(C(=O)O)ccc1-c1noc(-c2ncn(-c3c(C)cccc3C)c2C)n1 [Example 2-3, 4-{5-[1-(2,6-Dimethyl-phenyl)-5-methyl-1H-imidazol-4-yl]-[1,2,4]oxadiazol-3-yl}-3-methoxy-benzoic acid] | 1.97 µM
COc1cc(-c2noc(-c3ncn(-c4c(C)cccc4C)c3C)n2)ccc1C(=O)O [Example 2-4, 4-{5-[1-(2,6-Dimethyl-phenyl)-5-methyl-1H-imidazol-4-yl]-[1,2,4]oxadiazol-3-yl}-2-methoxy-benzoic acid] | 0.76 µM
COc1cc(-c2noc(-c3ncn(-c4c(C)cccc4Cl)c3C)n2)ccc1C(=O)O [Example 2-5, 4-{5-[1-(2-Chloro-6-methyl-phenyl)-5-methyl-1H-imidazol-4-yl]-[1,2,4]oxadiazol-3-yl}-2-methoxy-benzoic acid] | 0.59 µM
COc1cc(-c2noc(-c3nc(CO)n(-c4ccccc4Cl)c3C)n2)cc(OC)c1OC [Example 3-1, (1-(2-Chlorophenyl)-5-methyl-4-(3-(3,4,5-trimethoxyphenyl)-1,2,4-oxadiazol-5-yl)-1H-imidazol-2-yl)methanol] | 1.79 µM
COc1cc(-c2noc(-c3nc(C(=O)O)n(-c4ccccc4Cl)c3C)n2)cc(OC)c1OC [Example 3-2, 1-(2-Chlorophenyl)-5-methyl-4-(3-(3,4,5-trimethoxyphenyl)-1,2,4-oxadiazol-5-yl)-1H-imidazole-2-carboxylic acid] | 4.05 µM

The remaining lines, values ahead:

EC50 | Molecule
0.5 µM | COc1cc(-c2noc(-c3nc(C)n(-c4ccccc4Br)c3C)n2)cc(OC)c1OC [Example 1-3, 5-(1-(2-Bromophenyl)-2,5-dimethyl-1H-imidazol-4-yl)-3-(3,4,5-trimethoxyphenyl)-1,2,4-oxadiazole]
4.06 µM | COC(=O)c1ccc(-c2noc(-c3nc(C)n(-c4ccccc4Cl)c3C)n2)cc1 [Example 1-4, 4-{5-[1-(2-Chloro-phenyl)-2,5-dimethyl-1H-imidazol-4-yl]-[1,2,4]oxadiazol-3-yl}-benzoic acid methyl ester]
0.68 µM | COc1ccc(OC)c(-c2noc(-c3nc(C)n(-c4ccccc4Br)c3C)n2)c1 [Example 1-7, 5-[1-(2-Bromo-phenyl)-2,5-dimethyl-1H-imidazol-4-yl]-3-(2,5-dimethoxy-phenyl)-[1,2,4]oxadiazole]
0.193 µM | COc1ccc(-c2noc(-c3ncn(-c4c(C)cccc4Cl)c3C)n2)c(OC)c1 [Example 1-8, 5-[1-(2-Chloro-6-methyl-phenyl)-5-dimethyl-1H-imidazol-4-yl]-3-(2,4-dimethoxy-phenyl)-[1,2,4]oxadiazole]
5.07 µM | COc1ccc(-c2noc(-c3nc(C)n(-c4ccccc4Cl)c3C)n2)cc1 [Example 1-11, 5-[1-(2-Chloro-phenyl)-2,5-dimethyl-1H-imidazol-4-yl]-3-(4-methoxy-phenyl)-[1,2,4]oxadiazole]
2.38 µM | COC(=O)c1ccc(-c2noc(-c3nc(C)n(-c4ccccc4Cl)c3C)n2)cc1OC [Example 1-13, 4-{5-[1-(2-Chloro-phenyl)-2,5-dimethyl-1H-imidazol-4-yl]-[1,2,4]oxadiazol-3-yl}-2-methoxy-benzoic acid methyl ester]
0.68 µM | COc1ccccc1-c1noc(-c2nc(C)n(-c3ccccc3Cl)c2C)n1 [Example 1-14, 5-[1-(2-Chloro-phenyl)-2,5-dimethyl-1H-imidazol-4-yl]-3-(2-methoxy-phenyl)-[1,2,4]oxadiazole]
1.47 µM | COc1ccc(-c2noc(-c3nc(C)n(-c4ccccc4Cl)c3C)n2)c(OC)c1 [Example 1-16, 5-[1-(2-Chloro-phenyl)-2,5-dimethyl-1H-imidazol-4-yl]-3-(2,4-dimethoxy-phenyl)-[1,2,4]oxadiazole]
1.81 µM | COc1ccc(OC)c(-c2noc(-c3nc(C)n(-c4ccccc4Cl)c3C)n2)c1 [Example 1-17, 5-(1-(2-chlorophenyl)-2,5-dimethyl-1H-imidazol-4-yl)-3-(2,5-dimethoxy-phenyl)-1,2,4-oxadiazole]
1.59 µM | COc1cc(-c2noc(-c3nc(C)n(-c4ccccc4Cl)c3C)n2)cc(OC)c1OC [Example 1-18, 5-[1-(2-Chloro-phenyl)-2,5-dimethyl-1H-imidazol-4-yl]-3-(3,4,5-trimethoxy-phenyl)-[1,2,4]oxadiazole]
0.92 µM | COC(=O)c1ccc(-c2noc(-c3nc(C)n(-c4ccccc4Cl)c3C)n2)c(OC)c1 [Example 1-19, 4-{5-[1-(2-Chloro-phenyl)-2,5-dimethyl-1H-imidazol-4-yl]-[1,2,4]oxadiazol-3-yl}-3-methoxy-benzoic acid methyl ester]
2.99 µM | COc1ccc(-c2noc(-c3nc(C)n(-c4ccccc4Cl)c3C)n2)c(F)c1 [Example 1-20, 5-[1-(2-Chloro-phenyl)-2,5-dimethyl-1H-imidazol-4-yl]-3-(2-fluoro-4-methoxy-phenyl)-[1,2,4]oxadiazole]
5.31 µM | COC(=O)c1ccc(-c2noc(-c3nc(C)n(-c4ccccc4Cl)c3C)n2)cc1C [Example 1-21, 4-{5-[1-(2-Chloro-phenyl)-2,5-dimethyl-1H-imidazol-4-yl]-[1,2,4]oxadiazol-3-yl}-2-methyl-benzoic acid methyl ester]
5.96 µM | COc1cccc(-c2noc(-c3nc(C)n(-c4ccccc4Cl)c3C)n2)c1 [Example 1-22, 5-[1-(2-Chloro-phenyl)-2,5-dimethyl-1H-imidazol-4-yl]-3-(3-methoxy-phenyl)-[1,2,4]oxadiazole]
0.78 µM | COc1cc(-c2noc(-c3nc(Br)n(-c4ccccc4Cl)c3C)n2)cc(OC)c1OC [Example 1-24, 5-[2-Bromo-1-(2-chloro-phenyl)-5-methyl-1H-imidazol-4-yl]-3-(3,4,5-trimethoxy-phenyl)-[1,2,4]oxadiazole]
3.08 µM | Cc1nc(-c2nc(-c3ccc(C(=O)O)cc3)no2)c(C)n1-c1ccccc1Cl [Example 2-2, 4-{5-[1-(2-Chloro-phenyl)-2,5-dimethyl-1H-imidazol-4-yl]-[1,2,4]oxadiazol-3-yl}-benzoic acid]

test system: RSV; test: not given; conditions: two separate Phase III clinical trials, selected high-risk infants, prophylactic use; cited from earlier work

Molecule | reduction in hospitalization rate
palivizumab: palivizumab (Synagis, MedImmune), approved for prophylactic use in selected high-risk infants | 45-55%
